{"source": "paper PMC7450057", "about": "“Enhancing intracellular accumulation and target engagement of PROTACs with reversible covalent chemistry” (Nature Communications, 2020)", "key": {"BTK C481S mutant": {"test_system": "BTK C481S mutant", "settings": "cited from earlier work"}, "MOLM-14 cells": {"test_system": "MOLM-14 cells", "test": "AlamarBlue cell viability assay, MOLM-14", "settings": "for Cell viability, MOML-14: Supplementary Figure 7, replicates", "procedure": "The IC50 was calculated using GraphPad Prism software with a four-parameter dose-response curve fit."}, "Mino": {"test_system": "Mino", "test": "IC50 in MCL cell lines (Supplementary Table 2), Mino", "settings": "Mino; triplicates"}, "Rec-1": {"test_system": "Rec-1", "test": "IC50 in MCL cell lines (Supplementary Table 2), Rec-1", "settings": "for Cell Viability (%): Rec-1 cells, replicate wells"}, "Jeko-1": {"test_system": "Jeko-1", "test": "IC50 in MCL cell lines (Supplementary Table 2), Jeko-1", "settings": "for Cell Viability (%): Jeko-1 cells, replicate wells"}, "Maver-1": {"test_system": "Maver-1", "test": "IC50 in MCL cell lines (Supplementary Table 2), Maver-1", "settings": "Maver-1; triplicates"}, "NanoLuc-CRBN fusion": {"target": "T1, NanoLuc-CRBN fusion (Homo sapiens, UniProt Q96SW2)", "T1 construct": "host or cells: HEK 293T/17", "test": "NanoBRET CRBN in-cell target engagement assay", "assay_type": "cell-based", "settings": "Figure 3h, replicates", "method": "The target engagement assay for BTK or CRBN was from Promega (BTK kit, Cat. No. N2500; CRBN kit, Cat. No. CS1810C136) and was performed according to the manufacture’s instruction with some modifications. […] After 2 h incubation, the 3X Nano-Glo® Substrate with NanoLuc® extracellular inhibitor were added to cells and developed for 3 min at room temperature. BRET signals were collected using a BioTek SYNERGY H1 microplate reader equipped with a 450/80-nm BP filter for donor emission and a 610-nm LP filter for acceptor emission. BRET Ratio was calculated with the equation: [(Acceptor sample/Donor sample)–(Acceptor no tracer control/Donor no tracer control)] × 1000. The IC50 of the compound against its BTK or CRBN tracer was calculated using GraphPad Prism software."}, "[1]": {"test_system": "truncated Cereblon protein", "test": "CRBN binding assay (fluorescence quenching)", "settings": "for Fluorescence Intensity: Supplementary Figure 11, replicates", "method": "The Kd values of compounds to CRBN were measured based on fluorescence quenching after compounds binding to CRBN. […] All the compounds were dissolved in DMSO (10 mM) as stock solutions. The final drug concentration is 100 nM. […] Fluorescence intensity values for control wells (assay buffer only) were subtracted from each data point prior to analysis. The Kd was calculated using GraphPad Prism with the following equation curve fit. I=I0−If×Kd/P0+Kd+If"}, "BTK": {"target": "BTK (Homo sapiens, UniProt Q06187)", "sequence (Q06187 whole entry)": "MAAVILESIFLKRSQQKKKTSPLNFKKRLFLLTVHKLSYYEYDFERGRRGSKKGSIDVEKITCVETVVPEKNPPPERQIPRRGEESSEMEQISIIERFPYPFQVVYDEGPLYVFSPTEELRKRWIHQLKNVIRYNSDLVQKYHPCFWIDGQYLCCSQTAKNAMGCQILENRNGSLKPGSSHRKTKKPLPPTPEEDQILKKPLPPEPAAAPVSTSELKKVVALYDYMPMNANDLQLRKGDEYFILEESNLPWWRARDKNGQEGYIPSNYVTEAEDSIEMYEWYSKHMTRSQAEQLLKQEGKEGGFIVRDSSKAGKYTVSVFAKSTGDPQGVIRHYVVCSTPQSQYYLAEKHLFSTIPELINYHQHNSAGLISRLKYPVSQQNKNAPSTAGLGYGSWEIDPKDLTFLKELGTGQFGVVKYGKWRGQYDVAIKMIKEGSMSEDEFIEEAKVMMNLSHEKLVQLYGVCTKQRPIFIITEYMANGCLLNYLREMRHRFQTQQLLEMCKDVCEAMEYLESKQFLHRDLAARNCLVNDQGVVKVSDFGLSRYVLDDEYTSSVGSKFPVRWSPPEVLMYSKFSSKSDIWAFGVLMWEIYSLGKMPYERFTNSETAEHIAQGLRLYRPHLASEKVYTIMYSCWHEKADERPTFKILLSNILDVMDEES", "test": "BTK degradation in MOLM-14 cells (western blot)", "assay_type": "cell-based", "parameters": "endogenous in cells; host or cells: MOLM-14"}}, "note": "Where “and” joins values, the source holds several entries; their conditions need not be identical. Identical values can stand only once. Entries after “also recorded” stand apart in the source; their conditions may differ.", "data": [{"compound": "C=CC(=O)N1CCC[C@@H](n2nc(-c3ccc(Oc4ccccc4)cc3)c3c(N)ncnc32)C1", "note": "[IRC-Ctrl, ibrutinib, reference compound]", "values": [{"measurement": "IC50", "setting": "BTK C481S mutant", "result": 4.6, "unit": "nM"}, {"measurement": "IC50", "setting": "MOLM-14 cells; Homo sapiens, MOLM-14, 72 h, read-out: Cell viability IC50", "result": 330, "unit": "nM"}, {"measurement": "Cell viability, MOML-14", "setting": "MOLM-14 cells; drug concentration 1.00E-05 M", "result": "2.829 and 3.671 and 10.6075 and 4.63 and 7.964"}, {"measurement": "Cell viability, MOML-14", "setting": "MOLM-14 cells; drug concentration 1.60E-08 M", "result": "78.5123 and 71.6258 and 103.431 and 81.3409"}, {"measurement": "Cell viability, MOML-14", "setting": "MOLM-14 cells; drug concentration 2.00E-06 M", "result": "11.3315 and 13.8066 and 22.1242 and 13.453 and 22.4778"}, {"measurement": "Cell viability, MOML-14", "setting": "MOLM-14 cells; drug concentration 3.20E-09 M", "result": "74.4713 and 69.3023 and 89.0692 and 86.5941 and 80.2465"}, {"measurement": "Cell viability, MOML-14", "setting": "MOLM-14 cells; drug concentration 4.00E-07 M", "result": "35.4256 and 44.6356 and 55.26 and 47.599 and 43.2718"}, {"measurement": "Cell viability, MOML-14", "setting": "MOLM-14 cells; drug concentration 6.40E-10 M", "result": "87.7559 and 71.8279 and 83.9002"}, {"measurement": "Cell viability, MOML-14", "setting": "MOLM-14 cells; drug concentration 8.00E-08 M", "result": "71.3059 and 57.3983 and 86.3921 and 79.7919 and 76.879"}, {"measurement": "IC50", "setting": "Mino", "result": 3800, "unit": "nM"}, {"measurement": "IC50", "setting": "Rec-1; Rec-1, triplicates", "result": 6200, "unit": "nM"}, {"measurement": "Cell Viability (%)", "setting": "Rec-1; 1.50E-05 M", "result": "8.535% and 9.796% and 10.5906%"}, {"measurement": "Cell Viability (%)", "setting": "Rec-1; 1.88E-06 M", "result": "74.3495% and 75.6404% and 76.9194%"}, {"measurement": "Cell Viability (%)", "setting": "Rec-1; 3.00E-05 M", "result": "2.364% and 2.247% and 2.265%"}, {"measurement": "Cell Viability (%)", "setting": "Rec-1; 3.75E-06 M", "result": 66.2063, "unit": "%"}, {"measurement": "Cell Viability (%)", "setting": "Rec-1; 4.69E-07 M", "result": "84.8624% and 81.0762% and 81.5842%"}, {"measurement": "Cell Viability (%)", "setting": "Rec-1; 7.50E-06 M", "result": "44.5947% and 45.7572% and 45.7871%"}, {"measurement": "Cell Viability (%)", "setting": "Rec-1; 9.38E-07 M", "result": "81.9548% and 81.1808% and 88.2512%"}, {"measurement": "IC50", "setting": "Jeko-1; Jeko-1, triplicates", "result": 300, "unit": "nM"}, {"measurement": "Cell Viability (%)", "setting": "Jeko-1; 1.50E-05 M", "result": "2.151% and 2.02% and 1.9313%"}, {"measurement": "Cell Viability (%)", "setting": "Jeko-1; 1.88E-06 M", "result": "2.568% and 2.43% and 2.412%"}, {"measurement": "Cell Viability (%)", "setting": "Jeko-1; 3.00E-05 M", "result": "2.333% and 2.338% and 2.111%"}, {"measurement": "Cell Viability (%)", "setting": "Jeko-1; 3.75E-06 M", "result": "2.338% and 2.397% and 2.358%"}, {"measurement": "Cell Viability (%)", "setting": "Jeko-1; 4.69E-07 M", "result": "5.039% and 20.4969% and 18.3979%"}, {"measurement": "Cell Viability (%)", "setting": "Jeko-1; 7.50E-06 M", "result": "2.252% and 2.304% and 1.966%"}, {"measurement": "Cell Viability (%)", "setting": "Jeko-1; 9.38E-07 M", "result": "2.5504% and 5.547% and 2.871%"}, {"measurement": "IC50", "setting": "Maver-1", "result": 5400, "unit": "nM"}]}, {"compound": "Nc1cccc2c1C(=O)N(C1CCC(=O)NC1=O)C2=O", "note": "(stereo not shown) [Pomalidomide, pomalidomide, reference compound]", "values": [{"measurement": "NanoBRET(%)", "setting": "NanoLuc-CRBN fusion; drug concentration 1.00E-05 M", "result": "8.749% and 2.427%"}, {"measurement": "NanoBRET(%)", "setting": "NanoLuc-CRBN fusion; drug concentration 1.60E-08 M", "result": "79.9835% and 62.224% and 75.9099%"}, {"measurement": "NanoBRET(%)", "setting": "NanoLuc-CRBN fusion; drug concentration 2.00E-06 M", "result": "10.9943% and 16.7844%"}, {"measurement": "NanoBRET(%)", "setting": "NanoLuc-CRBN fusion; drug concentration 3.20E-09 M", "result": "86.2914% and 88.5513% and 84.0314%"}, {"measurement": "NanoBRET(%)", "setting": "NanoLuc-CRBN fusion; drug concentration 4.00E-07 M", "result": "54.7588% and 35.141% and 58.1892%"}, {"measurement": "NanoBRET(%)", "setting": "NanoLuc-CRBN fusion; drug concentration 8.00E-08 M", "result": "88.9359% and 73.8405% and 79.0012%"}, {"measurement": "Fluorescence Intensity", "setting": "[1]; CRBN 0 μM", "result": "9876.2 and 9503.2 and 9587.2"}, {"measurement": "Fluorescence Intensity", "setting": "[1]; CRBN 0.734375 μM", "result": "7603.2 and 7913.2 and 7829.2"}, {"measurement": "Fluorescence Intensity", "setting": "[1]; CRBN 1.46875 μM", "result": "6654.2 and 6940.2 and 6542.2"}, {"measurement": "Fluorescence Intensity", "setting": "[1]; CRBN 2.9375 μM", "result": "5927.2 and 5996.2 and 5981.2"}, {"measurement": "Fluorescence Intensity", "setting": "[1]; CRBN 5.875 μM", "result": "5201.2 and 5168.2 and 5152.2"}, {"measurement": "Fluorescence Intensity", "setting": "[1]; CRBN 11.75 μM", "result": "4654.2 and 4688.2 and 4502.2"}, {"measurement": "Fluorescence Intensity", "setting": "[1]; CRBN 23.5 μM", "result": "4529.2 and 4338.2 and 4613.2"}, {"measurement": "Kd", "setting": "[1]; truncated Cereblon protein, fluorescence quenching, triplicates", "result": 1400, "unit": "nM"}, {"measurement": "Quantification anti-BTK / anti-β-actin (BTK level vs DMSO)", "setting": "BTK; Figure 2d, DMSO = 100 (mean)", "result": 81.7787}, {"measurement": "BTK degradation (in words)", "setting": "BTK; MOLM-14 cells, 200 nM, 24 h (Fig. 2d)", "result": "Neither RC-Ctrl, nor pomalidomide, nor a combination of both caused BTK degradation; also recorded: neither the RC-1 warhead, nor pomalidomide, nor a combination of both caused BTK degradation"}]}]}
